Source: patent US20250032530A1, “USE OF AURANOFIN AS AN INHIBITOR OF ATYPICAL PROTEIN KINASE C FOR TREATMENT OF NEURODEGENERATIVE DISORDERS” (UNIVERSITY OF SOUTH FLORIDA, priority 2021, published 2025)
Where two headings read alike, the source gives them in different places.

Columns and labels:
[1] = IV and PO, 200 mg/kg body weight; cited from earlier work
[2] = biological target: T1, 70 kDa PKC-λ/ι (Mus musculus, UniProt Q62074); test: 70 kDa PKC-λ/ι activity (p-thr-555/560-aPKC, Western) in brain and liver of normal mice given ICAP nasally or IV; assay type: in vivo
T1 construct: from tissue; host or cells: mouse brain and liver
T1 sequence (Q62074 1-595): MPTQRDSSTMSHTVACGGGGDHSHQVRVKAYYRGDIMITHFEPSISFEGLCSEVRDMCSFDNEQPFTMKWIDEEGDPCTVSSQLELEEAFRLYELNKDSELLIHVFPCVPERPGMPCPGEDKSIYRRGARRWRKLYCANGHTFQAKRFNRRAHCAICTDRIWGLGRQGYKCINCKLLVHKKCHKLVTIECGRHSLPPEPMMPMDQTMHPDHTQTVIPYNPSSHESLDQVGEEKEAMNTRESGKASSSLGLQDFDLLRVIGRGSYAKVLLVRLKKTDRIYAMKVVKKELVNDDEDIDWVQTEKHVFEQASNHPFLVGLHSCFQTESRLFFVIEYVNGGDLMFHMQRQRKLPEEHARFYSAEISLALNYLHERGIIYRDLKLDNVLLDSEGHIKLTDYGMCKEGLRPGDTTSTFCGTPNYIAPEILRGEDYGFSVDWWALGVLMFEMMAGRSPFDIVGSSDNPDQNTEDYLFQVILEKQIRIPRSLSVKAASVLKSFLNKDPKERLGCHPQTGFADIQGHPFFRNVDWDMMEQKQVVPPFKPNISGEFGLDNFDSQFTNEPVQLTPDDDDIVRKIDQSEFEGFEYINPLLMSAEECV

[3] = biological target: T2, PKC-λ/ι (Mus musculus, UniProt Q62074); details: cited from earlier work
T2 sequence (Q62074 1-595): T1 sequence (Q62074 1-595)

[4] = Distribution and passage of the blood brain barrier; assay type: in vivo; details: published and prelim PK/PD studies
Protocol: aPKC Inhibitors. We identified by HTS compounds that target the substrate-binding site of aPKCs and potently (IC50s10-30 nM) inhibit recombinant PIP3-dependent aPKCs, but not DAG-dependent PKCs. Three compounds have been studied in detail: (a) 1H-imidazole-4-carboxamide, 5-amino-1-[2,3-dihydroxy-4-[(phosphono-oxy)methyl]cyclopentyl-[1R-(1a,2b,3b,4a)] […] Thus, these agents can reduce brain aPKC activity, indirectly at lower doses by inhibiting liver aPKC and correcting hyperinsulinemia in insulin-resistant states, and, at higher doses, by acting directly on brain PKC-λ/ι.

[5] = tested on: aPKC, Akt2, AMP-activated kinase (AMPK), FoxO1; details: isolated human hepatocytes; cited from earlier work
[6] = tested on: Tg APP/PS1 AD mice; test: Memory tests (Novel Object Recognition, RAWM) in transgenic APP/PS1 AD mice given oral ICAP; assay type: in vivo, mouse; details: PO 100 mg/kg/day × 3 months
Protocol: Radial Arm Water Maze (RAWM) assesses learning and spatial memory and requires hippocampal and frontal cortical areas. The maze consisted of a circular pool filled with opaque water, with 6 arms radiating from a central area. On each training day, mice were released to swim and find a submerged escape platform at the end of a goal arm, utilizing extra-maze cues to form a spatial representation. On each day, there were 4 consecutive acquisition trials of no more than 1 minute each. […] If the animal made an error, it was returned to the start arm in a restart procedure. After the last acquisition trial, the animal was dried and returned to its home cage for 30 min and then given a single retention trial from the same start arm to measure short-term spatial memory.

[7] = tested on: BACE1; test: BACE1 protein and mRNA levels in brain and liver of normal mice given ICAP nasally or IV; assay type: in vivo, mouse
Protocol: Values are mean±SEM of 6 mice/group. P values, (ANOVA).
Values are mean±SEM of 6 mice/group.
As described, samples from mouse brains that were flash-frozen in liquid N2 and stored at −80° C. were homogenized in buffer containing 0.25M sucrose, 20 mM Tris/HCl (pH, 7.5), 2 mM EGTA, 2 mM EDTA, 1 mM phenyl-methyl-sulfonyl-fluoride, 20 μg/ml leupeptin, 10 μg/ml aprotinin, 2 mM Na4P2O7, 2 mM Na3VO4, 2 mM NaF, and 1 μM microcystin, and then supplemented with 1% TritonX-100, 0.6% Nonidet and 150 mM NaCl.
(§1) As described, western analyses were conducted with rabbit antisera, using: anti-aPKC [recognizes a C-terminal sequence in all aPKCs (Santa Cruz Biotechnologies, Santa Cruz, CA, USA)]; anti-phospho-threonine (thr)-560/555-PKC-ζ/λ/ι [recognizes a phosphopeptide sequence present in all aPKCs and indicates activation (Invitrogen, Carlsbad, CA, USA)]; anti-phospho-serine (ser)-473-Akt [recognizes a phosphopeptide sequence at 60 kDa present in all Akt's-1/2/3 and indicates activation (Cell Signaling Technologies, Danvers, MA, USA)]; anti-4 kDa-AP1-40/42 (Cell Signaling Technologies, Danvers, MA, USA); anti-mouse-70 kDa-BACE1 and anti-human-70 kDa-BACE1 (ThermoFisher); and anti-phospho-threonine (thr)-231-tau (Gene Tex, Irvine, CA, USA). Samples from all experimental groups within each study were compared on the same blots and routinely checked with loading controls. All comparisons in histograms were made relative to the mean value of the basal control group, i.e., wild-type mice consuming standard low-fat mouse chow, untreated with insulin or aPKC inhibitors, and having normal levels of aPKCs and other cellular proteins.

[8] = biological target: T3, 50 kDa PKMζ (Mus musculus, UniProt Q02956); test: 50 kDa PKMζ activity in brain of normal mice given nasal ICAP; assay type: in vivo; details: 100 mg/kg/day, 3 weeks
T3 construct: from tissue; host or cells: mouse brain
T3 sequence (Q02956 1-409 isoform Q02956-2): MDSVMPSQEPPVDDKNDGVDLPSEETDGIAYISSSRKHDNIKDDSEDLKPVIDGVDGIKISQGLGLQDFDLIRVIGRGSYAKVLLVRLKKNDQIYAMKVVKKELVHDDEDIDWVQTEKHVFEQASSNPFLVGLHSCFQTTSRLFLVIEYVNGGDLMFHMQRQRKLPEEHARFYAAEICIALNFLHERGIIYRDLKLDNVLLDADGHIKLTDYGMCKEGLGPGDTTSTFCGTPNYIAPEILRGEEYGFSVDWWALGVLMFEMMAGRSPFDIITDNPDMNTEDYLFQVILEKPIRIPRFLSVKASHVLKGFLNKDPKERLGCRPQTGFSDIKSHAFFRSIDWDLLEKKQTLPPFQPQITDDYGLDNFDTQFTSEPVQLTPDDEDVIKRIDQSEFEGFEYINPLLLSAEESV

[9] = tested on: aPKC; details: cited from earlier work
[10] = tested on: Aβ-peptides and Aβ-plaque; test: AD pathology (Aβ-peptides by ELISA, Aβ-plaque load) in transgenic APP/PS1 AD mice given ICAP; assay type: in vivo, mouse
[11] = tested on: BACE1 and CKs (TNF-α, IL-1β, IL-6); test: BACE1 and proinflammatory cytokine levels in APP/PS1 AD mice given oral ICAP; assay type: in vivo, mouse
From the text: Values are Mean±SEM of results in 10 mice.
As alluded to, resting PKC-λ/ι activity was increased by approx. 40% in brains of Tg APP/PS1 AD mice, relative to normal WT mice (FIG. 17).

[12] = tested on: non-sensitive cancer cells; details: read-out: cytotoxicity activity (IC50); cited from earlier work
[13] = tested on: Akt; test: Insulin-induced Akt activation in LA1-5s neuronal cells; assay type: cell-based, human; details: 200 nM insulin, 24 hours
From the text: (§2) Cell lysates were subjected to Western analyses for phosphorylated/activated forms of aPKC, NFκB and Akt. Representative blots of indicated proteins are shown in upper bands. […] Bargrams show Mean±SEM of 3-4 determinations. Asterisks indicate P<0.05; comparison of designated group versus the uninhibited, insulin-treated group (ANOVA).
(§3) LA1-5s neuronal cells were originally obtained from non-catecholamine-producing neuroblastoma of a person and are commercially available from the European Collection of Authenticated Cell Cultures. Incubation conditions were as described.
as §1, with “Samples from all experimental groups within each study were compared on the same blots and routinely checked with loading controls. All comparisons in histograms were made relative to the mean value of the basal control group, i.e., wild-type mice consuming standard low-fat mouse chow, untreated with insulin or aPKC inhibitors, and having normal levels of aPKCs and other cellular proteins.” left out

[14] = tested on: PKCι and PKCζ; details: cited from earlier work
[15] = tested on: sensitive cancer cells; details: read-out: cytotoxicity activity (IC50); cited from earlier work
[16] = tested on: NFκB; test: Insulin-induced NFκB activity in LA1-5s neuronal cells; assay type: cell-based, human; details: 200 nM insulin, 24 hours; 1 μM ACPD, increasing concentrations of auranofin
From the text: as §2, §3
as §1, with “Samples from all experimental groups within each study were compared on the same blots and routinely checked with loading controls. All comparisons in histograms were made relative to the mean value of the basal control group, i.e., wild-type mice consuming standard low-fat mouse chow, untreated with insulin or aPKC inhibitors, and having normal levels of aPKCs and other cellular proteins.” left out

[17] = tested on: BACE1; test: BACE1 levels in LA1-5s neuronal cells treated with insulin; assay type: cell-based, human; details: 200 nM insulin, 24 hours; increasing concentrations of ICAPP
Protocol: Values of BACE1 are Mean±SEM of 4 values. Asterisks indicate P<0.05 for comparison of designated group versus the untreated control group (ANOVA).
as §3, §1

[18] = tested on: CA-125; details: oral administration, 10 patients; cited from earlier work
[19] = PO; cited from earlier work
[20] = nasal, 100 mg/kg/day, 3 weeks, brain
[21] = mouse, in vivo, po, 100 mg/kg/day
[22] = PO 100 mg/kg/day × 3 months, brain

Structure (SMILES): NC(=O)c1ncn(C2CC(CO)C(O)C2O)c1N (centres unmarked) [ICAP]
- ICAP uptake over 24 hours, liver versus brain [1]: substantially greater in liver than in brain
- decrease of brain PKC-λ/ι (aPKC) activity ([2]; IV, 100 mg/kg/day × 7 days, normal mice, brain): 50-60%
- inhibition of PKC-λ versus PKMζ ([2]; mouse brain): inhibits PKC-λ, but not PKMζ
- inhibition of brain 70 kDa PKC-λ/ι (aPKC) activity ([2]; nasal, 100 mg/kg/day, 3 weeks, normal mice, brain): 70-80%
- effect on LTP and LTM [3]: lack of effect
- passage of the BBB [4]: clearly passes the BBB and enters the brain
- tissue distribution [4]: preferentially distributes to liver
- FoxO1 phosphorylation/inactivation [5]: increase FoxO1 phosphorylation/inactivation
- inhibition of aPKC, Akt2, AMPK [5]: inhibit aPKC but not Akt2 or AMP-activated kinase (AMPK)
- memory function, Novel Object Recognition (NOR) test [6]: restored memory functions
- memory function, RAWM test ([6]; not shown): restored memory functions
- decrease of brain BACE1 levels ([7]; IV, 100 mg/kg/day × 7 days, brain): 50-60%
- decrease of liver BACE1 levels ([7]; IV, 100 mg/kg/day × 7 days, liver): approximately 90%
- decrease of brain BACE1 mRNA levels [7, 20]: approximately 50%
- decrease of brain BACE1 protein levels [7, 20]: approximately 50%
- brain 50 kDa PKMζ activity [8]: not altered
- inhibition of brain aPKC ([9]; at higher doses): inhibit brain aPKC
- effectiveness in brain ([9]; given per os (PO), nasally, SC): effective in brain
- aPKC inhibition in liver, muscle, adipose tissue ([9]; intact mice, employed doses): inhibit aPKC in liver, but not in muscle or adipose tissue
- reduction of Aβ-plaque load ([10]; PO 100 mg/kg/day × 3 months, APP/PS1 AD mice): approx. 70%
- Aβ40 levels [10, 21]: reduced
- Aβ42 levels [10, 21]: reduced
- AD pathological and functional aberrations ([10]; nasal ICAP, APP/PS1 AD mice, not shown): corrected AD pathological and functional aberrations
- liver BACE1 levels ([11]; PO 100 mg/kg-bw daily, liver): diminished
- brain levels of BACE1 [11, 22]: diminished
- brain levels of CKs (TNF-α, IL-1β, IL-6) [11, 22]: diminished

Structure (SMILES): CC(=O)OC[C@H]1O[C@@H]([S-])[C@H](OC(C)=O)[C@@H](OC(C)=O)[C@@H]1OC(C)=O.CCP(CC)CC.[Au+] [auranofin, 1-thio-β-D-glucopyranosatotriethylphosphine gold-2,3,4,6-tetraacetate]
- IC50 [12]: > 40 µM
- insulin-induced Akt activation [13]: not Akt activation
- inhibition of PKCι and PKCζ signaling by targeting the PB1 domain [14]: inhibits PKCι and PKCζ signaling
- insulin activation of aPKC (PB1 site) [14]: inhibit insulin activation of aPKC
- IC50 [15]: ≤ 10 µM
- insulin-induced increase in NFκB activity [16]: diminished
- insulin-induced increase in BACE1 levels [17]: diminished
- levels of CA-125 [18]: decreased levels of CA-125 in one patient
- passage of the BBB [19]: known to cross the BBB
